Measured values taken from EP1803452A1, “ESTER DERIVATIVE AND PHARMACEUTICAL USE THEREOF” (Japan Tobacco, Inc., priority 2004, dated 2006).

Key:
[1] = Stability test in buffer (pH 7.4); assay type: physicochemical; details: phosphate buffer/acetonitrile 7:3, 100 mM potassium phosphate buffer (pH 7.4) and acetonitrile 7:3 (v/v), LC/MS; for remaining at 10 min: 10 minutes at 37°C, read-out: Buf. remaining rate (%/10min); for remaining at 1 h: 60 minutes at 37°C, read-out: Buf. remaining rate (%/60min)
How it was run: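 Parent compound measured by LC/MS after 0, 10 or 60 min at 37°C in a 7:3 (v/v) mix of 100 mM potassium phosphate buffer and acetonitrile, with the reaction stopped by acetonitrile plus formic acid (final 0.1%). Percentage remaining is expressed relative to the zero-time amount.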

[2] = Metabolic stability test in plasma; assay type: in vitro ADME, human; details: LC/MS; for remaining at 10 min: unchanged form after 10 minutes at 37°C in human plasma, read-out: Remaining rate in human plasma (%/10min); for remaining at 1 h: unchanged form after 60 minutes at 37°C in human plasma, read-out: Remaining rate in human plasma (%/60min)
How it was run: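 Remaining rate (%) versus zero time was derived from LC/MS measurement of parent compound after centrifugation. Plasma from human, mouse and hamster received DMSO-dissolved compound and was held at 37°C for 0, 10 or 60 minutes before acetonitrile containing formic acid (final 0.1%) stopped the reaction.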

[3] = Metabolic stability test in liver S9; assay type: in vitro ADME; details: pH 7.4, human liver S9 2 mg protein/mL, LC/MS; for remaining at 10 min: unchanged form after 10 minutes at 37°C, read-out: Remaining rate in human liver S9 (%/10min); for remaining at 1 h: unchanged form after 60 minutes at 37°C, read-out: Remaining rate in human liver S9 (%/60min)
How it was run: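 Compound from DMSO solution was incubated at 37°C with human liver S9 (final 2 mg protein/mL) in 100 mM potassium phosphate pH 7.4 with an NADPH-regenerating system for 0, 10 and 60 minutes. Reactions were stopped with acetonitrile/0.1% formic acid. Unchanged compound was measured by LC/MS as remaining rate (%) relative to zero time.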

In the case of `CCCC(=O)c1ccc(OC(=O)CCCc2ccc(NC(=O)c3ccccc3-c3ccc(C(F)(F)F)cc3)c(C(=O)N(C)C)c2)cc1` [Compound 1-93, 4-(3-dimethylcarbamoyl-4-{(4'-trifluoromethylbiphenyl-2-carbonyl)amino}phenyl)butyric acid 4-butyrylphenyl ester], the remaining at 10 min [1] is reported as 107%, the remaining at 1 h [1] is reported as 109% and the remaining at 10 min [2] is reported as 52%. The remaining at 1 h [2] was 0%, the remaining at 10 min [3] was 4% and the remaining at 1 h [3] was 0%.

For `COC(=O)c1ccc(OC(=O)CCCc2ccc(NC(=O)c3ccc(C)nc3-c3ccc(C(F)(F)F)cc3)c(C(=O)N(C)C)c2)cc1` [Compound 1-13, 4-[4-(3-dimethylcarbamoyl-4-{[6-methyl-2-(4-trufluoromethylphenyl)pyridine-3-carbonyl]amino}phenyl)butyryloxy)benzoic acid methyl ester], the remaining at 10 min [1] was 95%, the remaining at 1 h [1] was 97% and the remaining at 10 min [2] was 24%. For the same compound, the remaining at 1 h [2] was 0%, the remaining at 10 min [3] was 0% and the remaining at 1 h [3] was 0%.

In the case of `COC(=O)c1ccc(OC(=O)CCCc2ccc(NC(=O)c3ccc(C)nc3-c3ccc(C(F)(F)F)cc3)c(C(=O)N(C)C)c2)c(C)c1` [Compound 1-69, 4-[4-(3-dimethylcarbamoyl-4-{[6-methyl-2-(4-trifluoromethylphenyl)pyridine-3-carbonyl]amino}phenyl)butyryloxy]-3-methylbenzoic acid methyl ester], the remaining at 10 min [1] is reported as 101%, the remaining at 1 h [1] is reported as 106% and the remaining at 10 min [2] is reported as 70%. For the same compound, the remaining at 1 h [2] was 11%, the remaining at 10 min [3] was 0% and the remaining at 1 h [3] was 0%.

Compound `COc1cc(C(=O)OC(C)C)cc(OC)c1OC(=O)CCCc1ccc(NC(=O)c2ccc(C)nc2-c2ccc(C(F)(F)F)cc2)c(C(=O)N(C)C)c1` [Compound 1-44, 4-[4-(3-dimethylcarbamoyl-4-{[6-methyl-2-(4-trifluoromethylphenyl)pyridine-3-carbonyl]amino}phenyl)butyryloxy]-3,5-dimethoxybenzoic acid isopropyl ester] has a remaining at 10 min [1] of 99%, a remaining at 1 h [1] of 100% and a remaining at 10 min [2] of 13%. For the same compound, the remaining at 1 h [2] was 0%, the remaining at 10 min [3] was 12% and the remaining at 1 h [3] was 4%.

In the case of `COC(=O)c1cc(OC)c(OC(=O)CCCc2ccc(NC(=O)c3ccc(C)nc3-c3ccc(C(F)(F)F)cc3)c(C(=O)N(C)C)c2)c(C(=O)OC)c1` [Compound 1-53, 4-[4-(3-dimethylcarbamoyl-4-{[6-methyl-2-(4-trifluoromethylphenyl)pyridine-3-carbonyl]amino}phenyl)butyryloxy]-5-methoxyisophthalic acid dimethyl ester], the remaining at 10 min [1] is reported as 100%, the remaining at 1 h [1] is reported as 106% and the remaining at 10 min [2] is reported as 3%. The remaining at 1 h [2] was 3%, the remaining at 10 min [3] was 5% and the remaining at 1 h [3] was 2%.

`COC(=O)c1cc(Br)c(OC(=O)CCCc2ccc(NC(=O)c3ccc(C)nc3-c3ccc(C(F)(F)F)cc3)c(C(=O)N(C)C)c2)c(OC)c1` [Compound 1-50, 3-bromo-4-[4-(3-dimethylcarbamoyl-4-{[6-methyl-2-(4-trifluoromethylphenyl)pyridine-3-carbonyl]amino}phenyl)butyryloxy]-5-methoxybenzoic acid methyl ester] gave a remaining at 10 min [1] of 97%, a remaining at 1 h [1] of 103% and a remaining at 10 min [2] of 0%. For the same compound, the remaining at 1 h [2] was 0%, the remaining at 10 min [3] was 7% and the remaining at 1 h [3] was 2%.

`COc1ccc(COC(=O)c2ccc(OC(=O)CCCc3ccc(NC(=O)c4ccccc4-c4ccc(C(F)(F)F)cc4)c(C(=O)N(C)C)c3)cc2)cc1` [Compound 1-96, 4-[4-(3-dimethylcarbamoyl-4-{(4'-trifluoromethylbiphenyl-2-carbonyl)amino}phenyl)butyryloxy]benzoic acid 4-methoxybenzyl ester] gave a remaining at 10 min [1] of 100%, a remaining at 1 h [1] of 109% and a remaining at 10 min [2] of 0%. The remaining at 1 h [2] was 0%, the remaining at 10 min [3] was 15% and the remaining at 1 h [3] was 7%.

With `CC(=O)c1ccc(OC(=O)CCCc2ccc(NC(=O)c3ccccc3-c3ccc(C(F)(F)F)cc3)c(C(=O)N(C)C)c2)cc1` [Compound 1-22, 4-(3-dimethylcarbamoyl-4-[(4'-trifluoromethylbiphenyl-2-carbonyl)amino]phenyl}butyric acid 4-acetylphenyl ester] the remaining at 10 min [1] was 96%, the remaining at 1 h [1] was 98% and the remaining at 10 min [2] was 8%. For the same compound, the remaining at 1 h [2] was 0%, the remaining at 10 min [3] was 0% and the remaining at 1 h [3] was 0%.

`CN(C)C(=O)c1cc(CCCC(=O)Oc2ccc(C(=O)OCc3cccc(Cl)c3)cc2)ccc1NC(=O)c1ccccc1-c1ccc(C(F)(F)F)cc1` [Compound 1-87, 4-[4-(3-dimethylcarbamoyl-4-{(4'-trifluoromethylbiphenyl-2-carbonyl)amino}phenyl)butyryloxy]benzoic acid 3-chlorobenzyl ester] showed a remaining at 10 min [1] of 100%, a remaining at 1 h [1] of 104% and a remaining at 10 min [2] of 60%. For the same compound, the remaining at 1 h [2] was 2%, the remaining at 10 min [3] was 11% and the remaining at 1 h [3] was 2%.

`CN(C)C(=O)c1cc(CCCC(=O)Oc2ccc(C(=O)OCc3cccnc3)cc2)ccc1NC(=O)c1ccccc1-c1ccc(C(F)(F)F)cc1` [Compound 1-83, 4-[4-(3-dimethylcarbamoyl-4-((4'-trifluoromethylbiphenyl-2-carbonyl)amino}phenyl)butyryloxy]benzoic acid pyridin-3-ylmethyl ester] gave a remaining at 10 min [1] of 99%, a remaining at 1 h [1] of 99% and a remaining at 10 min [2] of 39%. For the same compound, the remaining at 1 h [2] was 0%, the remaining at 10 min [3] was 0% and the remaining at 1 h [3] was 0%.

With `Cc1ccc(C(=O)Nc2ccc(CCCC(=O)Oc3ccc(C(=O)OCc4cccnc4)cc3)cc2C(=O)N(C)C)c(-c2ccc(C(F)(F)F)cc2)n1` [Compound 1-94, 4-[4-(3-dimethylcarbamoyl-4-{[6-methyl-2-(4-trifluoromethylphenyl)pyridine-3-carbonyl]amino}phenyl)butyryloxy]benzoic acid pyridin-3-ylmethyl ester] the remaining at 10 min [1] was 99%, the remaining at 1 h [1] was 102% and the remaining at 10 min [2] was 41%. The remaining at 1 h [2] was 9%, the remaining at 10 min [3] was 0% and the remaining at 1 h [3] was 0%.

Work on `CC(=O)NCCOC(=O)c1ccc(OC(=O)CCCc2ccc(NC(=O)c3ccccc3-c3ccc(C(F)(F)F)cc3)c(C(=O)N(C)C)c2)cc1` [Compound 1-77, 4-[4-(3-dimethylcarbamoyl-4-{(4'-trifluoromethylbiphenyl-2-carbonyl)amino}phenyl)butyryloxy]benzoic acid 2-acetylaminoethyl ester] yielded a remaining at 10 min [1] of 99%, a remaining at 1 h [1] of 100% and a remaining at 10 min [2] of 59%. The remaining at 1 h [2] was 2%, the remaining at 10 min [3] was 0% and the remaining at 1 h [3] was 0%.

In the case of `CCOc1cc(C(=O)OC)cc(Cl)c1OC(=O)CCCc1ccc(NC(=O)c2ccc(C)nc2-c2ccc(C(F)(F)F)cc2)c(C(=O)N(C)C)c1` [Compound 1-40, 3-chloro-4-[4-(3-dimethylcarbamoyl-4-{[6-methyl-2-(4-trifluoromethylphenyl)pyridine-3-carbonyl]amino}phenyl)butyryloxy]-5-ethoxybenzoic acid methyl ester], the remaining at 10 min [1] is reported as 100%, the remaining at 1 h [1] is reported as 102% and the remaining at 10 min [2] is reported as 0%. It also gave a remaining at 1 h [2] of 0%, a remaining at 10 min [3] of 5% and a remaining at 1 h [3] of 0%.

`CN(C)C(=O)c1cc(CCCC(=O)Oc2ccc(-c3nnn(C)n3)cc2)ccc1NC(=O)c1ccccc1-c1ccc(C(F)(F)F)cc1` [Compound 1-95, 4-(3-dimethylcarbamoyl-4-{(4'-trifluoromethylbiphenyl-2-carbonyl)amino}phenyl)butyric acid 4-(2-methyl-2H-tetrazol-5-yl)phenyl ester] gave a remaining at 10 min [1] of 103%, a remaining at 1 h [1] of 102% and a remaining at 10 min [2] of 82%. The remaining at 1 h [2] was 29%, the remaining at 10 min [3] was 0% and the remaining at 1 h [3] was 0%.

`CC(C)OC(=O)c1ccc(OC(=O)CCCc2ccc(NC(=O)c3cccnc3-c3ccc(C(F)(F)F)cc3)c(C(=O)N(C)C)c2)cc1` [Compound 1-31, 4-[4-(3-dimethylcarbamoyl-4-{[2-(4-trifluoromethylphenyl)pyridine-3-carbonyl]amino}phenyl)butyryloxy]benzoic acid isopropyl ester] showed a remaining at 10 min [1] of 101%, a remaining at 1 h [1] of 102% and a remaining at 10 min [2] of 26%. For the same compound, the remaining at 1 h [2] was 0%, the remaining at 10 min [3] was 0% and the remaining at 1 h [3] was 0%.

For `CN(C)C(=O)c1cc(CCCC(=O)Oc2ccc(C(=O)OC3CCc4ccccc43)cc2)ccc1NC(=O)c1ccccc1-c1ccc(C(F)(F)F)cc1` (stereo not drawn) [Compound 1-107, 4-[4-(3-dimethylcarbamoyl-4-{(4'-trifluoromethylbiphenyl-2-carbonyl)amino}phenyl)butyryloxy]benzoic acid indan-1-yl ester], the remaining at 10 min [1] was 98%, the remaining at 1 h [1] was 99% and the remaining at 10 min [2] was 63%. It also gave a remaining at 1 h [2] of 2%, a remaining at 10 min [3] of 11% and a remaining at 1 h [3] of 3%.
